Measurements published in US11174251B2, “Compositions and methods for inhibition of the JAK pathway” (Rigel Pharmaceuticals, Inc., priority 2010, dated 2021).
pIC50: −log10 of the molar value. Structures can show the parent of a compound that is named as a salt.

Molecular target: T1, JAK3 (Homo sapiens, UniProt P52333)
T1 construct: The Ramos B-cell line was acquired from ATCC (ATCC Catalog No. CRL-1596); host or cells: Ramos B-cell line (human)
T1 sequence (P52333 1-1124): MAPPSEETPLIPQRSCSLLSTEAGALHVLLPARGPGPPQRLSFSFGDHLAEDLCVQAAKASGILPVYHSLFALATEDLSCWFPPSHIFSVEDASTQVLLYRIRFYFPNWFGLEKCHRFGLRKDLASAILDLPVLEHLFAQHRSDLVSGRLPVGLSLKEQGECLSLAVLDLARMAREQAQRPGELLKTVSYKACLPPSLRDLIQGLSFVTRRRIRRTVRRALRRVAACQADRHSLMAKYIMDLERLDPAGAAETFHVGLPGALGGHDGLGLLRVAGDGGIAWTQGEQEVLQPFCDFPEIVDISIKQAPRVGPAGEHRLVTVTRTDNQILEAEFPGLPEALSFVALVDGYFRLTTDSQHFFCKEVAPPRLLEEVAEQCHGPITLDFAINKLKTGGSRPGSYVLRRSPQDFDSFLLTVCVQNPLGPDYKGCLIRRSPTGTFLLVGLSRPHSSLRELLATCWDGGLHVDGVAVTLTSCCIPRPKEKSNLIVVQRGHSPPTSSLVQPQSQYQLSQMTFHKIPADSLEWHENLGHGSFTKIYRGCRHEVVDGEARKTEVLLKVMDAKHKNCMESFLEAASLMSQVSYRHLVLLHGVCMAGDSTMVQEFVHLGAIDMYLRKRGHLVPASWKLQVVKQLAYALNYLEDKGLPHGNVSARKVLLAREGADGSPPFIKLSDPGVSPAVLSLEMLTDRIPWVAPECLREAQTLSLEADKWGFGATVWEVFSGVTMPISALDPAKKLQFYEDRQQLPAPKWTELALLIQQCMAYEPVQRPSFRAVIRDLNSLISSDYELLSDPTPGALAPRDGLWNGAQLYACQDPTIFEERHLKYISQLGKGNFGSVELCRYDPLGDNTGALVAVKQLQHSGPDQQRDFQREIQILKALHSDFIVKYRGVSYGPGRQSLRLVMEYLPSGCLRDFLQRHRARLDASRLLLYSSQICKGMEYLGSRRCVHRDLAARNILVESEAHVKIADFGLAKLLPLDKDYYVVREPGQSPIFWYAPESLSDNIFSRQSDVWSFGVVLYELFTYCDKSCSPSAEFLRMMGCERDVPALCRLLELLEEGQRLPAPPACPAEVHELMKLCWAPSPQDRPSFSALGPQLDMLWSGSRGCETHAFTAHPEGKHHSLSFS
Test: Assay for CD23 expression on Ramos B-cells stimulated by IL-4 (Table IV: ability to inhibit JAK3 activity)
Format: cell-based
Conditions: tested under conditions described in Example 3 (so in the source)
Procedure, shortened: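 Human Ramos B cells in RPMI with 5% serum, pre-incubated 1 h at 37 °C with compound or DMSO, then stimulated with IL-4 (final 50 units/mL) for 20–24 h. Surface CD23 upregulation measured by FACS staining as readout of JAK1/JAK3–Stat-6 signalling.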

Row | Compound | pIC50
1 | COc1c(C)ccc(Nc2ncc(C)c(Nc3ccc4oc(=O)[nH]c4c3)n2)c1F [Compound I-29, 5-[2-(2-Fluoro-3-methoxy-4-methyl-phenylamino)-5-methyl-pyrimidin-4-ylamino]-3H-benzooxazol-2-one trifluoroacetate salt] | > 6.30
2 | O=c1[nH]c2cc(Nc3nc(Nc4cc(F)cc(N5CCOCC5)c4)ncc3F)ccc2o1 [Compound I-169, 5-(2-(3-fluoro-5-morpholinophenylamino)-5-fluoropyrimidin-4-ylamino)benzo[d]oxazol-2(3H)-one ditrifluoroacetate salt] | > 6.30

Second part, the compound after the results:

Row | pIC50 | Compound
3 | > 6.30 | COc1cc(Nc2ncc(Cl)c(Nc3ccc4oc(=O)[nH]c4c3)n2)cc(C(F)(F)F)c1 [Compound I-12, 5-(5-chloro-2-(3-methoxy-5-(trifluoromethyl)phenylamino)pyrimidin-4-ylamino)benzo[d]oxazol-2(3H)-one]
4 | 5.00 to 5.30 | COc1cc(Nc2ncc(F)c(Nc3ccc4oc(=O)[nH]c4c3)n2)c(F)cc1C [Compound I-123, 5-(5-fluoro-2-(2-fluoro-5-methoxy-4-methylphenylamino)pyrimidin-4-ylamino)benzo[d]oxazol-2(3H)-one trifluoroacetate salt]
5 | 5.00 to 5.30 | COc1ccc(F)c(Nc2ncc(F)c(Nc3ccc4oc(=O)[nH]c4c3)n2)c1 [Compound I-119, 5-(5-fluoro-2-(2-fluoro-5-methoxyphenylamino)pyrimidin-4-ylamino)benzo[d]oxazol-2(3H)-one]
